Measured values published in patent US20200155503A1, “COMPOSITIONS FOR USE FOR TREATING CUTANEOUS LEISHMANIASIS” (BIONOOX SA, priority 2017, published 2020).
Read-outs that look alike come from different tables or passages of the source.

Legend:
[1] = tested on: Neutrophils infected with L. major mCherry; experiment: ROS production by neutrophils infected with L. major mCherry (Luminol); type: cell-based; settings: MOI 1:10, Luminol for 90 min
Description: Neutrophils were isolated by Magnetic-activated cell sorting (MACS) and infected with L. major mCherry at a multiplicity of infection ratio (MOI) of 1:10.
Dihydroquercetin, […] ethyl benzoate or bisabolol at different concentrations were added and stimulated for 24 hours.
Kinetic of ROS production was measured by Luminol for 90 min.

Neutrophil = Neutrophil cell viability by flow cytometry with DAPI staining; type: cell-based
Description: Neutrophil cell viability was assessed by flow cytometry with DAPI staining pas 24 hours incubation with dihydroquercetin (5, 15 and 25 μM), 3-(2-chloroacetamido) ethyl benzoate (1, 2 and 4 μM) and bisabolol (0.05, 0.1 and 0.5% w/v).

Leishmania major mCherry = experiment: Parasite killing in bone marrow-derived macrophages infected with Leishmania major mCherry (flow cytometry, microscopy); type: cell-based; settings: for macrophage mediated parasite killing: BMDM infected with L. major mCherry, compounds tested individually
Description: The direct microbicidal effect of compounds against the Leishmania parasites in infected macrophages and neutrophils was evaluated.
Bone marrow-derived macrophages (BMDM) were cultured for 7 days, harvested and infected with Leishmania major mCherry for 2 hrs. Then the non-phagocytosed parasites were washed and dihydroquercetin, 3-(2-chloroacetamido) ethyl benzoate or bisabolol were added at different concentrations and incubated at different time points. • Parasites killing was evaluated by flow cytometry and microscopy. • NO production was assessed by Griess reaction from the supernatants.

Leishmania parasites = experiment: Individual evaluation against Leishmania parasites; settings: evaluated individually

Row | SMILES | ROS production [1] | neutrophil viability (Neutrophil; 24 hours incubation, 1, 2 and 4 μM) | direct microbicidal effect against L. major (Leishmania major mCherry; infected macrophages and neutrophils, different concentrations) | effect against Leishmania parasites (Leishmania parasites) | cytotoxicity (neutrophil cell viability) (Neutrophil; 24 hours incubation, 5, 15 and 25 μM) | macrophage mediated parasite killing (Leishmania major mCherry) | cytotoxicity (neutrophil cell viability) (Neutrophil)
1 | CCOC(=O)c1cccc(NC(=O)CCl)c1 [3-(2-chloroacetamido) ethyl benzoate] | decrease in ROS production | induced a reduction in neutrophil viability | had a direct microbicidal effect against L. major |  |  |  | 
2 | O=C1c2c(O)cc(O)cc2OC(c2ccc(O)c(O)c2)C1O (stereo not shown) [Dihydroquercetin] |  |  |  | no or limited effect | no cytotoxicity | no impact on macrophage mediated parasite killing | 
3 | Cc1c(C)c2c(c(C)c1O)CC[C@@](C)(CCC[C@H](C)CCC[C@H](C)CCCC(C)C)O2 [alpha-tocopherol, (2R)-2,5,7,8-Tetramethyl-2-[(4R,8R)-(4,8,12-trimethyltridecyl)]-6-chromanol] |  |  |  | no or limited effect |  |  | 
4 | CC(C)=CCCC(C)(O)C1CC=C(C)CC1 (stereo not shown) [bisabolol, 6-methyl-2-(4-methyl-3-cyclohexen-1-yl)-5-hepten-2-ol] |  |  |  | no or limited effect |  | no impact on macrophage mediated parasite killing | no cytotoxicity
